Reference: ChEMBL document CHEMBL5236613, “Exploration of 1,2,3-triazole linked benzenesulfonamide derivatives as isoform selective inhibitors of human carbonic anhydrase” (Bioorg Med Chem, 2023)

How the values were obtained:
A549 = assay: cells; settings: Homo sapiens, A549, 24 h
Description: Antiproliferative activity against human A549 cells assessed as inhibition of cell growth incubated for 24 hrs by MTT assay

Carbonic anhydrase 9 = Carbonic anhydrase 9 (Homo sapiens, UniProt Q16790); assay: Inhibition of human transmembrane carbonic anhydrase 9 using 4-nitrophenyl acetate as substrate assessed as inhibition constant by spectrophotometric analysis

Row | IC50 (A549) [µM] | Ki (Carbonic anhydrase 9) [µM] | Compound
1 | 290 | 0.0186 | NS(=O)(=O)c1ccc(-n2cc(COC(=O)c3ccc4c(c3)C(=O)N(c3ccccc3Cl)C4=O)nn2)cc1
2 | 253 | 0.0245 | Cc1cccc(C)c1N1C(=O)c2ccc(C(=O)OCc3cn(-c4ccc(S(N)(=O)=O)cc4)nn3)cc2C1=O
3 | 231 | 0.0229 | NS(=O)(=O)c1ccc(-n2cc(COC(=O)c3ccc4c(c3)C(=O)N(c3cccc(F)c3)C4=O)nn2)cc1
4 | 199 | 0.035 | CCCCN1C(=O)c2ccc(C(=O)OCc3cn(-c4ccc(S(N)(=O)=O)cc4)nn3)cc2C1=O
5 | 161 | 0.0752 | CCCCCCN1C(=O)c2ccc(C(=O)OCc3cn(-c4ccc(S(N)(=O)=O)cc4)nn3)cc2C1=O
6 | 235 | 0.05 | CCCCCCCCN1C(=O)c2ccc(C(=O)OCc3cn(-c4ccc(S(N)(=O)=O)cc4)nn3)cc2C1=O
7 | 278 | 0.0253 | NS(=O)(=O)c1ccc(-n2cc(COC(=O)c3ccc4c(c3)C(=O)N(c3cccc5ccccc35)C4=O)nn2)cc1
8 | 258 | 0.0353 | NS(=O)(=O)c1ccc(-n2cc(COC(=O)c3ccc4c(c3)C(=O)N(c3ccccc3I)C4=O)nn2)cc1
9 | 300 | 0.0183 | NS(=O)(=O)c1ccc(-n2cc(COC(=O)c3ccc4c(c3)C(=O)N(c3ccccc3)C4=O)nn2)cc1
10 | 130 | 0.0239 | NS(=O)(=O)c1ccc(-n2cc(COC(=O)c3ccc4c(c3)C(=O)N(Cc3ccc5c(c3)OCO5)C4=O)nn2)cc1
11 | 266 | 0.0286 | N#Cc1ccc(N2C(=O)c3ccc(C(=O)OCc4cn(-c5ccc(S(N)(=O)=O)cc5)nn4)cc3C2=O)cc1
12 | 352 | 0.0489 | NS(=O)(=O)c1ccc(-n2cc(COC(=O)c3ccc4c(c3)C(=O)N(c3ccc(Cl)cc3)C4=O)nn2)cc1
13 | 10.8 | – | COc1cccc2c1C(=O)c1c(O)c3c(c(O)c1C2=O)C[C@@](O)(C(=O)CO)C[C@@H]3O[C@H]1C[C@H](N)[C@H](O)[C@H](C)O1 [DOXORUBICIN]
